The results in this text go back to patent US11510921B2, “Bromocriptine formulations” (VEROSCIENCE LLC, priority 2017, dated 2022).

The nature of series [1]: Water solubility of formulations versus traditional formulation (Table 11). The note with it: 20 C.
Experimental: (§1) Effect of constituents on the stability and solubility of bromocriptine formulations. […] The stability and solubility of the formulations are assessed versus a traditional formulation of bromocriptine mesylate as described in Table 1.
The nature of series [2]: Heat and humidity stability of formulations versus traditional formulation (Table 11). The settings on record: 40 C and 75% RH; short chain saccharide substituted for lactose.
Experimental: as §1
Series [3] can be described thus: Browning (degradation) reaction of bromocriptine with excipients in heated aqueous suspension. It is filed as physicochemical. The procedure: A series of reaction vessels were prepared containing various combinations of bromocriptine mesylate, Mg stearate, and/or lactose, with or without citric acid, in aqueous suspension and reacted at 60° C. for 55 hours. Additionally, samples were prepared wherein the Mg stearate was replaced/substituted with stearic acid.
2 ml of distilled water was added to the samples, which were then mixed by vortexing, placed in a reaction chamber with thermostat set at 50° C. for 24 hours, then (after 24 hours) set at 60° C. The color change of the sample solutions/mixtures were evaluated by comparing the color of the solution with a Standardized Color Chart; the color intensities of the sample solutions/mixtures (from clear to dark brown) was graded at specified time points from time 0 to time 55 hours (see FIG. 2). In FIG. 2, a number “0” indicates a clear solution or white suspension; a number “40” represents the darkest solution/suspension observed.

SMILES strings stand for the structures. Where a name gives a salt, the structure may show the parent alone.

`CC(C)C[C@H]1C(=O)N2CCC[C@H]2[C@]2(O)O[C@](NC(=O)[C@@H]3C=C4c5cccc6[nH]c(Br)c(c56)C[C@H]4N(C)C3)(C(C)C)C(=O)N12` [Bromocriptine Mesylate, (5′α)-2-bromo-12′-hydroxy-2′-(1-methylethyl)-5′-(2-methylpropyl)-ergotaman-3′,6′,18-trione monomethanesulfonate salt]: the “Relative Improvement in Water Solubility Versus Traditional Bromocriptine Mesylate Pharmaceutical Formulation” value in series [1] (fatty acid or triglyceride + short chain saccharide), in series [1] (fatty acid or triglyceride substituted for Mg stearate) and in series [1] (short chain saccharide substituted for lactose) was “−” each time. In series [2], the “Relative Improvement In Heat & Humidity Stability Versus Traditional Bromocriptine Mesylate Pharmaceutical Formulation” value is listed as “+”.
In the case of `CC(C)C[C@H]1C(=O)N2CCC[C@H]2[C@]2(O)O[C@](NC(=O)[C@@H]3C=C4c5cccc6[nH]c(Br)c(c56)C[C@H]4N(C)C3)(C(C)C)C(=O)N12` [bromocriptine, (5′α)-2-bromo-12′-hydroxy-2′-(1-methylethyl)-5′-(2-methylpropyl)-ergotaman-3′,6′,18-trione], the “bromocriptine degradation and browning reaction” value in series [3] (addition of citric acid and substitution of Mg stearate with stearic acid) was “attenuated bromocriptine degradation and the browning reaction by the greatest magnitude”; in series [3] (addition of citric acid, Mg stearate alone or Mg stearate and lactose), “attenuated bromocriptine degradation and the browning reaction”; in series [3] (substitution of Mg stearate with stearic acid, with or without lactose), “attenuated bromocriptine degradation and the browning reaction”. Also, the browning reaction entry is recorded as “A more intense browning reaction occurred” in series [3] (bromocriptine exposed to both Mg stearate and lactose); “a browning product was produced” in series [3] (bromocriptine with Mg stearate in aqueous environment, absence of lactose). In addition, the bromocriptine degradation result in series [3] (substitution of Mg stearate with solid castor oil, compared with stearic acid) was “attenuated bromocriptine degradation to an even greater extent”.
